From BindingDB's records for PubMed 33356248 (Scientus Pharma, 2021) come the findings set out here.

The target of this experiment is Cannabinoid receptor 2 (Homo sapiens, UniProt P34972).
Sequence of Cannabinoid receptor 2 (P34972 whole entry): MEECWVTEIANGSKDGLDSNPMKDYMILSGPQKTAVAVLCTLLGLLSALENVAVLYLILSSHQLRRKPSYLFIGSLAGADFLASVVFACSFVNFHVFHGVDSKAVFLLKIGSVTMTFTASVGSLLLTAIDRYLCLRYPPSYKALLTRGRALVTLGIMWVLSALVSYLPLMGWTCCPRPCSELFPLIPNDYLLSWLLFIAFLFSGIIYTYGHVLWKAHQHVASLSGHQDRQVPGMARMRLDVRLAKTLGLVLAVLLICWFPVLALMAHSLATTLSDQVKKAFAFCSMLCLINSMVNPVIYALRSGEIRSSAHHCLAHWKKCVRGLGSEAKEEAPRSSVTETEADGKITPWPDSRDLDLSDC

`CCCCCc1cc(O)c2c(c1)OC(C)(C)c1ccc(C)cc1-2` [6,6,9-Trimethyl-3-pentyl-6H-benzo[c]chromen-1-ol(Cannabinol)]: the midpoint of the response, the EC50, lay at 60 nM.

By EC50 is commonly meant the concentration at which the effect is half-maximal. Lower therefore signals a more potent agent.
